In PubChem BioAssay AID179 (DTP/NCI, 2004):
Values joined by “and” are separate entries in the source; they are usually repeats but may differ in a detail not shown here. Equal values may be shown once. Active and inactive are the calls of the source.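 How the source made its calls: active means compounds giving half or more protection of infected cells from virus-caused growth loss, again on retest; inactive means the rest.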 Where a SMILES comes first, the peptide text is derived from it. [ ]: non-standard residue; d: D form. The star is where a group is joined. Cbz = O=C(OCc1ccccc1)*; Boc = CC(C)(C)OC(=O)*; Aib = CC(C)(N)C(=O)O; OBn = c1ccc(CO*)cc1; OtBu = CC(C)(C)O*; βAla = NCCC(=O)O

Test system: CEM cells HIV-1 protection, formazan growth assay
Assay: NCI AIDS Antiviral Assay
Details: for IC50: measured here: growth of uninfected CEM cells
How it was run: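 Steps: treat uninfected and HIV-1-infected human CEM cells at five drug levels; quantify growth by soluble formazan; retest any compound reaching 50% protection; classify actives from the retest.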

Compound | EC50 [µM] | IC50 | outcome
Cc1cn(C2CC(Br)=NO2)c(=O)[nH]c1=O (centres undefined) | > 200 | 34.7 µM | 
CCCc1noc(C(F)(F)Sc2ncccn2)n1 | > 200 | > 200 µM | 
COc1ccc(/C=C/C(=O)c2cc(C)ccc2OC(C)=O)cc1 | > 23.4 | 15.8 µM | 
CC(C)(C)OC(=O)CC(NC(=O)OC(C)(C)C)C(=O)NC(CCCCNC(=O)OCc1ccccc1)C(=O)NC(C)(C)C(=O)NCCC(=O)OCc1ccccc1 (centres undefined) (Boc-D(OtBu)K(Cbz)[Aib][βAla]-OBn; configuration not given here) | > 100 | > 100 µM | 
N#CC(C#N)N=Cc1ccncc1 | > 200 | 170 µM | 
COc1c(C(C)C)cc2c3c1OC(=O)[C@@]31CCCC(C)(C)C1CC2 (some centres undefined) | > 200 | 30.9 µM | 
COC(=O)C(=O)C(C(=O)Nc1cccc(C)c1C)C1Sc2ccccc2NC1=O (centres undefined) | > 17.4 | 16.6 µM | 
COC(=O)C1=COC(OC2OC(CO)C(O)C(O)C2O)C2C1C=C[C@@]21C=C([C@@H](C)OC(=O)/C=C/c2ccc(O)cc2)C(=O)O1 (some centres undefined) | > 295 | 158 µM | 
CN1OC2OC(=O)OC2[C@H]1[C@H]1O[C@H](c2ccccc2)OC1(C)c1cc(OC(=O)c2ccccc2)ccc1OC(=O)c1ccccc1 (some centres undefined) | > 2.34 | > 2.34 µM | 
Cc1cc(S(=O)(=O)N=C2Nc3cccc4cccc(c34)N2)c(S)cc1Cl | 132 | 174 µM | 
O=c1c(Cl)c(N2CCCCC2)cnn1-c1ccccc1 | > 174 | > 174 µM | 
COc1ccccc1N/N=c1/c2n(-c3ccc(Cl)cc3)c(=S)n(-c3ccccn3)c1=NCCN=2 | > 200 | > 200 µM | 
CCC1(CC)C(=O)NN(C(=O)c2ccccc2)C1=O | > 200 | > 200 µM | 
CC(C)CCC[C@@H](C)C1CCC2C3CCC4C[C@@](O)(C(c5cc(Cl)c(O)c(C(=O)O)c5)c5cc(Cl)c(O)c(C(=O)O)c5)CC[C@]4(C)C3CC[C@@]21C (some centres undefined) | > 200 | 25.1 µM | 
CCCCCCCCNC(=S)/N=C/c1c(O)c2ccccc2oc1=O | > 200 | 38.9 µM | 
COc1cc(/C=C/C(=N\NC(=O)c2ccccc2)c2sc(Nc3ccc(Cl)c(Cl)c3)nc2C)ccc1O | > 46.8 | 38.9 µM | 
CCOC(=O)C1(C)C(=O)CC2c3nc4ccccc4cc3CN2C1=O (centres undefined) | > 10 | > 10 µM | 
COc1ccc(N=C2C(=S)N(c3ccc(OC)cc3)/C(=N/S(=O)(=O)c3ccccc3)N2c2ccccc2)cc1 | > 20 | 0.389 µM | 
C=C(c1cccn1S(=O)(=O)c1ccccc1)c1cccn1S(=O)(=O)c1ccccc1 | > 100 | 25.7 µM | 
O=C(c1ccccc1)c1ccc2c(c1)N=C(c1ccc(Cl)c(Cl)c1)CC(c1ccc3ccccc3c1)N2 (centres undefined) | > 13.8 | > 13.8 µM | 
COc1ccc2nc3cc(Cl)ccc3c(Sc3ccccc3[N+](=O)[O-])c2c1 | > 9.55 | > 9.55 µM | 

Compound | EC50 [µM] | IC50 | outcome
CCSc1nc(=S)n(-c2ccccc2)c(C)c1C(C)=O | > 200 | > 200 µM | 
O=C(OCCN1CCCCC1)c1cc2ccccc2[nH]1 | > 200 | > 200 µM | 
N/C(=N/N=C/c1ccc(Cl)c([N+](=O)[O-])c1)NO |  |  | inactive
C#Cc1cccc(N2C(=O)CC(=P(c3ccccc3)(c3ccccc3)c3ccccc3)C2=O)c1 | > 11.2 | > 11.2 µM | 
C#CC(C)(C)OCCCCOc1cc(O)c2c(=O)c3ccccc3n(C)c2c1 | > 3.8 | > 3.8 µM | 
O=[N+]([O-])c1c[c]([Sb](=[O])([OH])[OH])ccc1Cl | > 200 | > 200 µM | 
CC1CC(c2cccc3c2OCO3)=Nc2ccccc2S1 (centres undefined) | > 17.4 | > 17.4 µM | 
CNC(=O)c1n[nH]n(Cc2ccccc2)c1=S | > 200 | > 200 µM | 
Cc1cc2c(C=O)[nH]nc2c(C#N)c1C |  |  | inactive
NNc1nncc2[nH]cnc12 | > 200 | > 200 µM | 
COc1ccc2nc3cccc([N+](=O)[O-])c3c(NCCNCCN(C)C)c2c1 | > 2 | 0.105 µM | 
O=S1(=O)C(c2cccc(C(F)(F)F)c2)=C(O)c2cc3ccccc3nc21 |  |  | inactive
CCOC(=O)NC(Nc1cccc(F)c1)(C(F)(F)F)C(F)(F)F | > 200 | > 200 µM | 
CN(C)c1ccc(C=C2c3ccccc3-c3ccccc32)cc1 | > 17.4 | > 17.4 µM | 
O=c1[nH]c2nc3ccccc3c(=O)n2/c1=C/c1ccccc1 | > 200 | 9.12 µM | 
CN(C)c1ccc(C=Cc2ccc([N+](=O)[O-])cc2)cc1.[C-]#[O+].[C-]#[O+].[C-]#[O+].[Cr] | > 20 | 2.4 µM | 
O=C1c2ccccc2-c2nnc(-c3ccc([N+](=O)[O-])cc3)cc21 | > 100 | > 100 µM | 
C=C(C)CS(=O)(=O)O | > 200 | > 200 µM | 
C[C@H](CCC(=O)O)[C@H]1CC[C@H]2[C@@H]3[C@H](O)C[C@@H]4C[C@H](O)CC[C@]4(C)[C@H]3CC[C@]12C | > 200 | 39.8 µM | 
CNS(=O)(=O)NN(C)S(=O)(=O)c1ccc(C)cc1 | > 617 | > 200 µM | 
Nc1ccc(C2c3ccccc3Oc3ccccc32)cc1 | > 200 | 30.9 µM | 

Compound | EC50 [µM] | IC50 | outcome
CC1(C)Oc2ccc3c(=O)cc(-c4cccs4)oc3c2C1C(=O)O (centres undefined) | > 200 | > 200 µM | 
OC1COc2ccc(Cl)cc2CSC1 (centres undefined) | > 200 | 166 µM | 
O=C(Nc1nc2ncn(CCO)c2c(=O)[nH]1)c1ccccc1 | > 832 | > 832 µM | 
COc1cc2c(cc1OC)C(C(CBr)CBr)N(C1CCCC1)CC2 (centres undefined) | > 389 | > 389 µM | 
CC(=O)/C(=C\c1ccccc1O)C(=O)Nc1ccccc1C | > 33.9 | 22.4 µM | 
O=c1[nH]c(=O)n(COCc2ccccc2)cc1Nc1ccc(Br)cc1 | > 200 | > 200 µM | 
CCC=C(c1cc(Cl)c(OC)c(C(=O)OC)c1)c1cc(Cl)c(OC)c(C(=O)OC)c1 | > 8.32 | > 8.32 µM | 
COC(=O)C1Cc2c([nH]c3ccccc23)C(c2ccccc2O)N1Cc1ccccc1 (centres undefined) |  |  | inactive
COc1ccc(/C(C#N)=C/c2cc(OC)c(OC)c(OC)c2)cc1 | > 200 | 5.75 µM | 
Cc1nc2c(nc1C)C(=O)C(Cl)=C(N)C2=O |  |  | inactive
COc1cc(-c2c(C(C)=O)c(-c3ccccc3)n(C3OC(COC(C)=O)C(OC(C)=O)C(OC(C)=O)C3OC(C)=O)c(=S)c2C#N)ccc1O (centres undefined) | > 200 | 74.1 µM and 45.7 µM | 
N#CCCN(CCC#N)c1ccc(/C=C2\N=C(c3ccccc3)N(c3ccccn3)C2=O)cc1 | > 200 | > 200 µM | 
Cc1coc(C)c1C(=S)Nc1ccc(Cl)c(C(=O)OC(C)C)c1 | 0.282 | 38 µM | 
Cc1ccc(S(=O)c2cccs2)cc1 (centres undefined) | > 1120 | 182 µM | 
O=C1[C@H](O)[C@@H]2CCC[C@@]23CCCN13 | > 200 | > 200 µM | 
C1=Cc2ccccc2/C1=C/c1cc2c3c(c1)CCCN3CCC2 | > 43.7 | > 43.7 µM | 
N[C@@H](CSSc1ccccc1C(=O)O)C(=O)O | > 200 | > 200 µM | 
O=C(/C=C/c1ccccc1)CCC1C(=O)c2ccccc2C1=O | > 23.4 | > 23.4 µM | 
Cc1ccc(SCC(CF)OCn2cc(F)c(=O)[nH]c2=O)cc1 (centres undefined) | > 200 | 123 µM | 
O=C(Nc1ccc(Cl)cc1)c1cc(S(=O)(=O)N2CCNNC2=O)c(S)cc1Cl | 9.77 | 129 µM | 
